Source: patent US5643890A, “Synthetic oligonucleotides which mimic telomeric sequences for use in treatment of cancer and other diseases” (priority 1995, dated 1997)
Where two headings read alike, the source gives them in different places.

How the values were obtained:
[1] = system: OMA-BL1 cells; experiment: Growth rate / doubling time of OMA-BL1 cells cultured with oligo; format: cell-based, human; conditions: for Doubling Time (Hours of Doubling): observed for 5 days
Protocol: A cell line, OMA-BL1, of cells derived from an American Burkitt's lymphoma patient, which had the typical 8:14 chromosome translocation characteristic of Burkitt's lymphoma was tested according to the method of the invention. The OMA-BL1 cells have a homologous staining region along chromosome 18 (18 HSR). The cell line was grown in vitro consisting of RPMI 1640 medium supplemented with 20% fetal calf serum (RF20). 2 mM L-glutamine and antibiotics (streptomycin 100 μ/ml and penicillin) 2× week.
Phosphorothioate oligonucleotides corresponding to the recognition sequence for telomerase enzyme were synthesized. The sequence of oligonucleotides tested was 5'-(TTAGGG)-3' SEQ ID NO: 3. They were dissolved in RPMI1640 medium before using.
The cell lines were grown under concentration of 5×10^5 cells/ml and RPMI1640 with and without different concentrations of oligo. Concentrations of oligo used in the study were 1.25 μM and 2.5 μM. The growth rate of the cells was measured by counting the cells with a light microscope and Neuber cell counter on days 1, 3, and 5 after initiation of the culture. […]

[2] = system: OMA-BL1, Burkitt's Lymphoma; experiment: In vivo efficacy, OMA-BL1 Burkitt's lymphoma in nude mice, continuous subcutaneous infusion
Protocol: Nude mice were injected with 5×10^6 OMA-BL1 cells subcutaneously in the leg flank. The mice were observed daily for the appearance of tumors and general well-being. […] The mean fill volume of these pumps is 0.226 ml. A solution of 4 mg/ml of 6-mers and 20 μl of FITC-TAG-6 was prepared then sterile filtered through a 0.22 μm in line filter (Millipore). […]

[3] = system: OMA-BL1 cells, PBE1 cells, HPB-null cell line; experiment: Cellular uptake of FITC-labeled oligo; format: cell-based; conditions: 6-mer compared with 18-mer; cell lines which have differentiated
Description: Several studies were done on cellular uptake and thus efficiency of oligonucleotide sequences mimicking the telomere motif. FIGS. 4 and 5 depict the comparison of the 18-mer 5'-d(TTAGGG)3 -3' SEQ ID NO: 4 with the 6-mer TELIGO 5'-d(TTAGGG)-3' SEQ ID NO: 3 for cellular uptake of FITC-labeled oligo in OMA-BL1 cells (FIGS. 5 and 4(a)), PBE1 cells FIG. 4(b) and in the nondifferentiated HPB-null cell line FIG. 4(c). […] FIG. 6 depicts the effects of 5'-d(TTAGGG)-3' SEQ ID NO: 3 on growth of OMA-BL1 cells in vitro at 1.25 μM and 2.5 μM.

[4] = system: 410.4 cells; experiment: Tumor invasion assay (Matrigel invasion chambers) and proliferation, mouse breast cancer cell line; format: cell-based; conditions: for % control invasion / % inhibition: Mouse cell line, 48 hours; for % inhibition: invasion; for proliferation (in words): mouse highly metastatic breast cancer cell line
Protocol: Migration of 410.4 cells through matrigel coated Nucleopore filters was measured using Matrigel invasion chambers (Collaborative Biomedical Products). These chambers contained inserts with […] pore size and were coated with a uniform film of matrigel. 4×10^4 410.4 cells in Weymouths Medium plus 0.1% bovine serum albumin were added to the invasion chambers. The wells below the invasion chambers contained 0.5 ml of Weymouths plus 10% fetal calf serum as a chemoattractant. […] The noninvasive cells were then removed from the upper surface of the membrane with a cotton swab and the cells on the lower surface were stained using a Leucostat staining kit. The membranes then were removed from the chamber using a scalpel and the cells were counted under high power (450×) in 5 random fields.

[5] = system: telomerase; experiment: FAM labeled 6-mer recovered from urine of tumor-bearing nude mouse, size analysis of telomerase products; format: in vivo; conditions: nude mouse bearing OMA-BL1 tumor
Protocol: An FAM labeled 6-mer 5'-d(TTAGGG)-3' SEQ ID NO: 3 was injected into nude mice with Burkitt's lymphoma (OMA-BL1) cells growing in them. The FAM labeled TELIGO was recovered from the urine of a nude mouse bearing a tumor composed of OMA-BL1 cells. The urine was evaluated on an Applied Biosystem, Inc. Gene Scanner which can separate the products of the telomerase enzyme by size along the abscissa and reports the quantity of products by the fluorescence intensity along the ordinate in arbitrary units. An internal standard of rhodamine labeled nucleic acids is run in the same gel in order to establish the measurement of size of the telomerase enzyme products of the TELIGO. The FAM label verifies that the DNA is from the injected TELIGO 6-mer and the size additions of intervals of 6-base lengths is evidence of the telomerase enzyme activity which adds 6 bases per catalytic cycle.
All products were multiples of six which is significant because in that telomerase adds bases to telomeres in multiples of six. Thus it would seem the 6-mer interacts with telomerase to form unique products verifying interaction in vivo.

[6] = system: highly metastatic breast cancer cell line (Human); experiment: Tumor invasion assay (Matrigel invasion chambers) and proliferation, human breast cancer cell line; format: cell-based; conditions: for % control invasion / % inhibition: Human cell line, 48 hours; for proliferation (in words): human highly metastatic breast cancer cell line; for % inhibition: invasion
[7] = system: Telomerase enzyme; experiment: Telomerase activity in extract of Chang cells incubated with oligo (32P-dGTP primer elongation, gel autoradiograph); format: cell-based, human; conditions: 3 μM oligo, three hours
Protocol: Chang cells (human liver carcinoma) were grown in three T150 flasks until they reached confluency. 5'-d(TTAGGG)-3' SEQ ID NO: 3 phosphorothioate oligonucleotide was added at 3 μM concentration to each of the flasks and was allowed to incubate for three hours. Cells were harvested by scraping with a rubber policeman. Telomerase enzyme was prepared according to the method of Dignam, J. D.; Lebovitz, R. M.; and Raeder, R. G. (1983). Accurate transcription initiation by RNA Polymerase II in a Soluble Extract From Isolated Mammalian Nuclei. Nucl. Acids Res. 11, 1475-1489. 20 μL samples were taken from -80° C. and 20 μL of a reaction mixture containing 4.0mM dATP, 4.0mM dTTP, 4.0 mM dGTP, 2.0 μM (5'-d(TTAGGG)3 -3') SEQ ID NO: 4 primer, 10 mM β-mercaptanol, 100 mM TRIS-acetate pH 8.5, 2.0 mM MgCl2, 1 mM spermidine, and 2 μL of 3000 Ci/mmol P^32 labeled dGTP.
Samples were incubated for 30 minutes at 30° C. and stopped by the addition 10 μL […] EDTA pH 8.0 and 2.0 μL of tracking dye. Samples were loaded onto a 12.5 percent acrylamide gel and run at 25 mA constant power for 4-5 hours until the tracking dye had run off the gel. The gel was then soaked in 10 percent glycerol and water and dried overnight between two sheets of cellophane. […] The telomerase activity was inhibited for the 6-mer oligo.

[8] = system: cell line; conditions: cited from earlier work
[9] = system: telomerase; experiment: HPB-null cell lysate, incorporation of labeled nucleic acids onto TELIGO 18-mer; format: cell-based; conditions: HPB-null cells
[10] = system: telomerase; experiment: Telomerase activity in OMA-BL1 cell lysate (densitometry of autoradiograph); format: biochemical, human; conditions: test not specified at b115
Protocol: An OMA-BL1 cell lysate was prepared to retain telomerase activity. The telomerase enzyme adds radioactive nucleic acids to the substrate which are separated on a polyacrylamide gel. The relative radioactivity in the gel was measured by densitomitry of the autoradiograph.

[11] = nude mice, 48 μg/day, 14 days, subcutaneous infusion

5'-d(GTTGAGGGG)-3' (DNA, backbone not given here)
Doubling Time (Hours of Doubling) ([1]; 1.25 μM oligo): 49.4 ± 4.02 h | Doubling Time (Hours of Doubling) ([1]; 2.5 μM oligo): 60.71 ± 4.25 h

5'-d(TAGGG)-3' (DNA, backbone not given here)
effect on cell proliferation (in words) [1]: no inhibitory effect | Doubling Time (Hours of Doubling) ([1]; 1.25 μM oligo): 48.5 ± 3.0 h | Doubling Time (Hours of Doubling) ([1]; 2.5 μM oligo): 41.6 ± 2.0 h

5'-d(TCCTAGGTCCATGTCGTACGC)-3' (DNA, backbone not given here) [reference compound]
Doubling Time (Hours of Doubling) ([1]; 2.5 μM oligo): 38 h

5'-d(TGAGG)-3' (DNA, backbone not given here)
Doubling Time (Hours of Doubling) ([1]; 1.25 μM oligo): 30.3 ± 39 h | Doubling Time (Hours of Doubling) ([1]; 2.5 μM oligo): 42.0 ± 6.8 h

5'-d(TGTGAG)-3' [reference compound]
tumor regression [2, 11]: no such action was observed | Doubling Time (Hours of Doubling) ([1]; 1.25 μM oligo): 42.4 ± 1.8 h | Doubling Time (Hours of Doubling) ([1]; 2.5 μM oligo): 40.9 ± 2.3 h

5'-d(TTAGG)-3' (DNA, backbone not given here)
effect on cell proliferation (in words) [1]: no inhibitory effect | Doubling Time (Hours of Doubling) ([1]; 1.25 μM oligo): 31.2 ± 8.5 h | Doubling Time (Hours of Doubling) ([1]; 2.5 μM oligo): 36.7 ± 3.1 h

5'-d(TTAGGG)-3' (phosphorothioate backbone) [6-mer oligonucleotide which mimics the telomere motif]
toxicity during the treatment [2, 11]: No toxicity was observed | tumor regression [2, 11]: regression of tumors | localization of the oligonucleotide ([2]; tumor bearing nude mice, continuous subcutaneous infusion): localization of the oligonucleotide in tumors | cellular uptake of FITC-labeled oligo [3]: considerably higher cellular uptake | % control invasion [4]: 15% | % inhibition [4]: 75% | proliferation (in words) [4]: inhibition of proliferation | substrate for telomerase in vivo (FAM-labeled products in urine, multiples of six) [5]: substrate for telomerase in vivo | effect on cell proliferation (in words) [1]: drastically decreasing cell proliferation | Doubling Time (Hours of Doubling) ([1]; 1.25 μM oligo): 59.4 ± 7.5 h | Doubling Time (Hours of Doubling) ([1]; 2.5 μM oligo): > 100 h | effect on cell proliferation (in words) ([1]; listed as phosphorothioate 6-mer): significant decrease in cell proliferation | % control invasion [6]: 30% | proliferation (in words) [6]: inhibition of proliferation | % inhibition [6]: 70% | telomerase activity (elongation on autoradiograph) [7]: inhibited

5'-d(TTAGGGTTAGGG):' (DNA, backbone not given here) [two telomere repeats]
days in culture before any observable response [8]: ≤ 6 days | Doubling Time (Hours of Doubling) ([1]; 1.25 μM oligo): > 100 h | Doubling Time (Hours of Doubling) ([1]; 2.5 μM oligo): > 100 h

5'-d(TTAGGGTTAGGGTTAGGG)-3' (DNA, backbone not given here)
extension on the TELIGO 18-mer (retained radioactivity) [9]: dependent upon the dose | % control invasion [4]: 21% | % inhibition [4]: 79% | proliferation (in words) [4]: inhibition of proliferation | Doubling Time (Hours of Doubling) ([1]; 1.25 μM oligo): > 100 h | Doubling Time (Hours of Doubling) ([1]; 2.5 μM oligo): > 100 h | % control invasion [6]: 8% | proliferation (in words) [6]: inhibition of proliferation | % inhibition [6]: 92%

5'-d(TTAGGGTTAGGGTTAGGGTTAGGG)-3'
Doubling Time (Hours of Doubling) ([1]; 1.25 μM oligo): > 100 h | Doubling Time (Hours of Doubling) ([1]; 2.5 μM oligo): > 100 h

5'AACGGTGAGGGGCAT-3' (chemistry not given here) [c-myc, antisense oligo to the c-myc gene, reference compound]
effect on cell proliferation (in words) [1]: significantly decreased cellular proliferation

5'TATGCTGTGCCGGGGTCTTCGGGC-3' (chemistry not given here) [c-myb antisense oligonucleotide, reference compound]
effect on cell proliferation (in words) [1]: significantly decreased cellular proliferation

TGTGAGGGG (chemistry not given here) [myc 9-mer, 9-mer derived from the antisense oligo c-myc, contains a motif substantially analogous to the telomere motif]
telomerase activity (in words) [10]: inhibited | effect on cell proliferation (in words) [1]: effects similar to the 6-met
